The results in this text go back to patent US20240239788A1, “SMALL MOLECULE INHIBITORS OF KRAS G12D MUTANT” (Merck Sharp & Dohme LLC, priority 2021, published 2024).

Like-named read-outs stand apart in the source and are kept apart here.

Test [1] concerns AsPC-1 cells containing homozygous KRAS-G12D activating mutation. Put plainly: Cellular phospho-ERK assay (Examples 1a-106). The format is cell-based. To be noted: AsPC-1 cells, 2 hours, ratio of p-Erk vs total Erk, read-out: IC50 (nM) pERK (Cell). An excerpt:
5% CO? overnight. […] Assay plates were read on a EnVision Multimode Plate Reader (PerkinElmer) and the ratio of p-Erk vs total Erk in each well was used as the final readout.

In test [2] the target is KRAS protein containing G12D mutation (Homo sapiens (Human), UniProt P01116, G12D). Put plainly: SOS-catalyzed nucleotide exchange assay (GNE), TR-FRET. The format is biochemical. The settings on record: biotinylated KRAS G12D, SOS and GTP, 60-minute incubation. As to the method: Compounds are added to this complex and then after a 60-minute incubation time the mixture is treated with SOS and unlabeled GTP. Small molecule inhibitors stabilize the Bodipy-GDP complex whereas the untreated protein rapidly exchanges Bodipy-GDP for unlabeled GTP resulting in reduced TR-FRET signal.
This solution is referred to as biotinylated KRAS G12D stock solution.
(Time-resolved FRET reads energy transfer from a long-lived donor to a nearby acceptor.)

Sequence of KRAS protein containing G12D mutation (P01116 other isoform, or with tags, fused parts or gaps G12D (already in the parent)): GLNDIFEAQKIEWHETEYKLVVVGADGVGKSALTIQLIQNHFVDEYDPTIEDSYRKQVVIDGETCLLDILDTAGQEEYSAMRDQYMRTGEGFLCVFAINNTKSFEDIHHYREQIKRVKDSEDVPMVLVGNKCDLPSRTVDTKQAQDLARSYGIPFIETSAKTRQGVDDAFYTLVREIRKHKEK

Turning to `Cc1cc2[nH]ncc2c(-c2c(F)cc3c(N4CC5CCC(C4)N5)nc(OCC4(CN(C)C)CC4(F)F)nc3c2F)c1C` (single isomer, unassigned) [Example 66b, 1-(1-(((4-(3,8-diazabicyclo [3.2.1]octan-3-yl)-7-(5,6-dimethyl-1H-indazol-4-yl)-6,8-difluoroquinazolin-2-yl)oxy)methyl)-2,2-difluorocyclopropyl)-N,N-dimethylmethanamine], the IC50 (commonly the concentration that gives 50% inhibition) in test [1] came out at 2120 nM; in test [2], 31.1 nM.

Turning to `Cc1c(Cl)cc2[nH]ccc2c1-c1c(F)cc2c(N3CC4CCC(C3)N4)nc(OCC3(CN(C)C)CC3)nc2c1F` [Ex 73, 1-(1-(((4-(3,8-diazabicyclo[3.2.1]octan-3-yl)-7-(6-chloro-5-methyl-1H-indol-4-yl)-6,8-difluoroquinazolin-2-yl)oxy)methyl)cyclopropyl)-N,N-dimethylmethanamine], the IC50 in test [1] (Homo sapiens, ASPC1, 2 h) was 14000 nM; in test [2], 1250 nM.

For the compound `Cc1c(Cl)cc2[nH]nc(C)c2c1-c1c(F)cc2c(N3CC4CCC(C3)N4)nc(OCC3(CN4CCOCC4)CC3)nc2c1F` [Ex 74, 4-((1-(((4-(3,8-diazabicyclo[3.2.1]octan-3-yl)-7-(6-chloro-3,5-dimethyl-1H-indazol-4-yl)-6,8-difluoroquinazolin-2-yl)oxy)methyl)cyclopropyl)methyl) morpholine], the IC50 came to 2000 nM in test [1] (Homo sapiens, ASPC1, 2 h) and 69.1 nM in test [2].

As for `Cc1c(Cl)cc2[nH]nc(C)c2c1-c1c(F)cc2c(N3C[C@H]4CC[C@@](C)(C3)N4)nc(OC[C@]3(CN(C)C)CC3(F)F)nc2c1F` [Ex 75, 1-((1R)-1-(((7-(6-chloro-3,5-dimethyl-1H-indazol-4-yl)-6,8-difluoro-4-((1S,5R)-1-methyl-3,8-diazabicyclo[3.2.1]octan-3-yl)quinazolin-2-yl)oxy)methyl)-2,2-difluorocyclopropyl)-N,N-dimethylmethanamine], the IC50 in test [1] (Homo sapiens, ASPC1, 2 h) turned out to be 7160 nM; in test [2], 1440 nM.

As for `Cc1cc2[nH]nc(C)c2c(-c2c(F)cc3c(N4C[C@H]5CC[C@@](C)(C4)N5)nc(OC[C@@H]4C[C@@H](F)CN4C)nc3c2F)c1Cl` [Ex 77, 7-(5-chloro-3,6-dimethyl-1H-indazol-4-yl)-6,8-difluoro-2-(((2S,4R)-4-fluoro-1-methylpyrrolidin-2-yl)methoxy)-4-((1S,5R)-1-methyl-3,8-diazabicyclo[3.2.1]octan-3-yl)quinazoline], the IC50 in test [1] (Homo sapiens, ASPC1, 2 h) amounted to 5350 nM; in test [2], 792 nM.

Consider `Cc1c(Cl)cc2[nH]nc(Cl)c2c1-c1c(F)cc2c(N3C[C@H]4CC[C@@](C)(C3)N4)nc(OCC3(CN4CC[C@@H](F)C4)CC3)nc2c1F` [Ex 78, 7-(3,6-dichloro-5-methyl-1H-indazol-4-yl)-6,8-difluoro-2-((1-(((R)-3-fluoropyrrolidin-1-yl)methyl)cyclopropyl)methoxy)-4-((1S,5R)-1-methyl-3,8-diazabicyclo[3.2.1]octan-3-yl)quinazoline], for which the IC50 was 6370 nM in test [1] (Homo sapiens, ASPC1, 2 h) and 1630 nM in test [2].

For the compound `CN(C)C[C@@]1(COc2nc(N3C[C@]4(C)CC[C@H]3CN4)c3cc(F)c(-c4cc(O)cc5ccccc45)c(F)c3n2)CC1(F)F` [Ex 83, 4-(2-(((R)-1-((dimethylamino)methyl)-2,2-difluorocyclopropyl)methoxy)-6,8-difluoro-4-((1S,4S)-4-methyl-2,5-diazabicyclo [2.2.2]octan-2-yl)quinazolin-7-yl) naphthalen-2-ol], the IC50 turned out to be 640 nM in test [1] (Homo sapiens, ASPC1, 2 h) and 2.72 nM in test [2].

Take `Cc1cc(N)nc(-c2c(F)cc3c(N4CC5CCC(C4)N5)nc(OCC4(CN5CCOCC5)CC4)nc3c2F)c1Cl` [Ex 88, 6-(4-((1R,5S)-3,8-diazabicyclo[3.2.1]octan-3-yl)-6,8-difluoro-2-((1-(morpholinomethyl)cyclopropy)methoxy)quinazolin-7-yl)-5-chloro-4-methylpyridin-2-amine]: the IC50 turned out to be 13200 nM in test [1] (Homo sapiens, ASPC1, 2 h) and 1350 nM in test [2].

Regarding `Oc1cc(-c2c(Cl)cc3c(N4CC5NC(C4)C(O)C5O)nc(OCC4(CN5CCOCC5)CC4)nc3c2F)c2ccccc2c1` (stereo not shown) [Ex. 1a, 3-(6-chloro-8-fluoro-7-(3-hydroxynaphthalen-1-yl)-2-((1-(morpholinomethyl)cyclopropyl)methoxy)quinazolin-4-yl)-3,8-diazabicyclo[3.2.1]octane-6,7-diol], the IC50 was found to be 14600 nM in test [1] (Homo sapiens, ASPC1, 2 h) and 742 nM in test [2].

Consider `Oc1cc(-c2c(F)cc3c(N4CC5NC(C4)C(O)C5O)nc(OCC4(CN5CCOCC5)CC4)nc3c2F)c2ccccc2c1` (stereo not shown) [Ex. 2, 3-(6,8-difluoro-7-(3-hydroxynaphthalen-1-yl)-2-((1-(morpholinomethyl)cyclopropyl)methoxy)quinazolin-4-yl)-3,8-diazabicyclo[3.2.1]octane-6,7-diol], for which the IC50 in test [1] (Homo sapiens, ASPC1, 2 h) worked out at 33200 nM; in test [2] it was 660 nM.

Turning to `OCC1(COc2nc(N3CC4CCC(C3)N4)c3cc(F)c(-c4cc(O)cc5ccccc45)c(F)c3n2)CNC1` [Ex. 4, 4-(4-(3.8-diazabicyclo[3.2.1]octan-3-yl)-6,8-difluoro-2-((3-(hydroxymethyl)azetidin-3-yl)methoxy)quinazolin-7-yl)naphthalen-2-ol], the IC50 worked out at 50800 nM in test [1] and 169 nM in test [2].

With `C=C[C@H]1[C@@H]2CC[C@@H](CN2)N1c1nc(OCC2(CN(C)C)CC2)nc2c(F)c(-c3cc(O)cc4ccccc34)c(F)cc12` [Ex. 6a, 4-(2-((1-((dimethylamino)methyl)cyclopropyl)methoxy)-6,8-difluoro-4-((1S,3S,4S)-3-vinyl-2,5-diazabicyclo[2.2.2]octan-2-yl)quinazolin-7-yl)naphthalen-2-ol], the IC50 in test [1] (Homo sapiens, ASPC1, 2 h) amounted to 13300 nM; in test [2], 159 nM.

Regarding `Cc1cc2[nH]ncc2c(C2Cc3nc(OCC4(CN5CC[C@@H](F)C5)CC4)nc(N4C[C@H]5CC[C@@](C)(C4)N5)c3CO2)c1C(F)(F)F` (stereo partly drawn) [Ex. 97, 2-((1-(((R)-3-fluoropyrrolidin-1-yl)methyl)cyclopropyl)methoxy)-7-(6-methyl-5-(trifluoromethyl)-1H-indazol-4-yl)-4-((1S,5R)-1-methyl-3,8-diazabicyclo[3.2.1]octan-3-yl)-7,8-dihydro-5H-pyrano[4,3-d]pyrimidine], the IC50 was 24300 nM in test [1] (Homo sapiens, ASPC1, 2 h) and 3950 nM in test [2].

In the case of `Cc1cc2[nH]ncc2c(C2Cc3nc(OCC4(CN5CC[C@@H](F)C5)CC4)nc(N4C[C@H]5CC[C@@](C)(C4)N5)c3C(=O)N2)c1C(F)(F)F` (stereo partly drawn) [Ex. 98b, 2-((1-(((R)-3-fluoropyrrolidin-1-yl)methyl)cyclopropyl)methoxy)-7-(6-methyl-5-(trifluoromethyl)-1H-indazol-4-yl)-4-((1S,5R)-1-methyl-3,8-diazabicyclo[3.2.1]octan-3-yl)-7,8-dihydropyrido[4,3-d]pyrimidin-5(6H)-one], the IC50 came to 50800 nM in test [1] (Homo sapiens, ASPC1, 2 h) and 11100 nM in test [2].

As for `C=C[C@@H]1[C@@H]2CC[C@@H](CN2)N1c1nc(OCC2(CN(C)C)CC2)nc2c(F)c(-c3cc(O)cc4ccccc34)c(F)cc12` [Example 6b, 4-(2-((1-((dimethylamino)methyl)cyclopropyl)methoxy)-6,8-difluoro-4-((1S,3R,4S)-3-vinyl-2,5-diazabicyclo[2.2.2]octan-2-yl)quinazolin-7-yl)naphthalen-2-ol], the IC50 in test [1] (Homo sapiens, ASPC1, 2 h) worked out at 5500 nM; in test [2] it was 426 nM.

For `CC[C@H]1[C@@H]2CC[C@@H](CN2)N1c1nc(OCC2(CN(C)C)CC2)nc2c(F)c(-c3cc(O)cc4ccccc34)c(F)cc12` [Example 9, 4-(2-((1-((dimethylamino)methyl)cyclopropyl)methoxy)-4-((1S,3S,4S)-3-ethyl-2,5-diazabicyclo[2.2.2]octan-2-yl)-6,8-difluoroquinazolin-7-yl)naphthalen-2-ol], the IC50 in test [1] (Homo sapiens, ASPC1, 2 h) was 13600 nM; in test [2], 1330 nM.

Regarding `CC[C@@H]1[C@@H]2CC[C@@H](CN2)N1c1nc(OCC2(CN(C)C)CC2)nc2c(F)c(-c3cc(O)cc4ccccc34)c(F)cc12` [Example 10, 4-(2-((1-((dimethylamino)methyl)cyclopropyl)methoxy)-4-((1S,3R,4S)-3-ethyl-2,5-diazabicyclo[2,2,2]octan-2-yl)-6,8-difluoroquinazolin-7-yl)naphthalen-2-ol], the IC50 turned out to be 9830 nM in test [1] (Homo sapiens, ASPC1, 2 h) and 2750 nM in test [2].

With `O=C(O)C1CC1COc1nc(N2CC3CCC(C2)N3)c2cc(F)c(-c3cc(O)cc4ccccc34)c(F)c2n1` (stereo not shown) [Example 13, 2-(((4-(3.8-diazabicyclo[3.2.1]octan-3-yl)-6,8-difluoro-7-(3-hydroxynaphthalen-1-yl)quinazolin-2-yl)oxy)methyl)cyclopropane-1-carboxylc acid], the figures for the half-maximal inhibitory concentration (IC50) in test [1] and in test [2] were 50800 nM and 5880 nM, respectively.

As for `Oc1cc(-c2c(F)cc3c(N4CC5CCC(C4)N5)nc(N4CC5(CCCN5)C4)nc3c2F)c2ccccc2c1` [Example 14, 4-(4-(3.8-diazabicyclo[3.2.1]octan-3-yl)-6,8-difluoro-2-(2,5-diazaspiro[3.4]octan-2-yl)quinazolin-7-yl)naphthalen-2-ol], the IC50 in test [1] (Homo sapiens, ASPC1, 2 h) worked out at 24000 nM; in test [2], 1570 nM.

Regarding `NC(=O)C1(COc2nc(N3CC4CCC(C3)N4)c3cc(F)c(-c4cc(O)cc5ccccc45)c(F)c3n2)CNC1` [Example 15, 3-(((4-(3.8-diazabicyclo[3.2.1]octan-3-yl)-6,8-difluoro-7-(3-hydroxynaphthalen-1-yl)quinazolin-2-yl)oxy)methyl)azetidine-3-carboxamide], the IC50 in test [1] (Homo sapiens, ASPC1, 2 h) was found to be 50800 nM; in test [2], 2140 nM.
